Where “and” joins values, the source holds several entries; their conditions need not be identical. Equal values may be shown once.
What was measured:
[1] = Free LNG circulating in plasma versus EE delivered (WO2016187269)
Procedure: However, ethinyl estradiol binds to SHBG and in the process it releases some of the bound LNG. Therefore if more or less than about 30 μg of EE are delivered from the contraceptive formulation, the required levels shown in FIGS. 3, 3a and 3b will have to be modified accordingly. […] Therefore the levels of required LNG can be calculated for any level of accompanied EE.

healthy women = assay: LNG level and required dose calculated from the trial's pregnancy rates (equations 2-4); assay type: in vivo; conditions: for LNG Level / Required Dose: 30 μg/day EE; for LNG Required Dose: range for pregnancy rates between 3% and 1.5%, EE 30 ug/day
Source text: There is an important unmet need pertaining to the determination of the amount of progestin required to provide contraceptive effectiveness to all women based on their BMI or body weight. Without intending to be bound to a particular understanding of mechanism of action, this invention is premised in part on the understanding that contraceptive effectiveness is based on the principle that there is a physical reaction or binding of a drug to its receptor and that therefore drug concentration will play an important part in contraceptive effectiveness. Further, by knowing the effect of a progestin amount (drug concentration) on contraceptive effectiveness on different BMI or body weight women, we can determine the amounts needed to provide effectiveness for any woman of known BMI or body weight. Given that contraceptive hormones interact reversibly with their receptors and assuming the resultant effect is proportional to the receptors occupied, a relationship between the effect and the free concentration of drug can be written as (Goodman and Gilman's Pharmaceutical Basis of Therapeutics, 8th edition, p. 44) Effect=Maximal effect (D)/(Kd+D) (equation 1) Where D is the concentration of the circulating free drug and Kd is the dissociation constant for the drug-drug receptor complex, i.e., the ratio of the rate constants of the forward and dissociation binding reactions. The steady state concentration D of the circulating free drug in the plasma is correlated to the dosage rate, by the equation (Goodman and Gilman's Pharmaceutical Basis of Therapeutics, 8th edition, p. 21), Dosage Rate=CL×D (CL is the clearance and it is constant for any specific drug). Therefore D=Dosage rate/CL. Substituting this in equation 1 one obtains Effect=Maximal effect×Dosage rate/CL/(Kd+Dosage rate/CL) (equation 2) […] Note that when equation 3 is substituted into equation 2 the clearance CL cancels out and is not involved in the calculations. Using the above formulas and isolating for D yields this equation: D=(Kd*Effect)/(1−Effect) (equation 4) […] They represent the relative dosage compared to that of the women in the 90 to 120 pound category (i.e. those that had 1.5% pregnancy rate). […] Therefore, D=(1.827*0.973)/(0.027) (equation 5) D=67 μg/day (equation 6) Required Dose=120×120/67=215 (equation 7). We consider the maximum acceptable percent pregnancy for 100 women over a period of one year to be 3%. […] The same analysis can be performed using the BMI of the women. […] The same analysis as performed for the required dosage based on women's body weight was performed using BMI and the data are shown in Tables 4 and 5 and plotted in FIG. 4. Although it may be easier for the medical practitioner to use the body weight of the subject in the treatment process, they can also use the BMI. It is therefore another object of the invention to treat women in a personalized manner depending on their BMI.

[2] = 1.5% pregnancy rate, BMI >17.5 ≤ 22.5
[3] = 1.5% pregnancy rate, BMI >22.5 ≤ 27.5
[4] = 1.5% pregnancy rate, BMI >27.5 ≤ 32.5
[5] = 1.5% pregnancy rate, BMI >32.5 ≤ 37.5
[6] = 1.5% pregnancy rate, BMI >37.5 ≤ 42.5
[7] = 1.5% pregnancy rate, BMI >42.5 ≤ 47.5
[8] = 1.5% pregnancy rate, BMI >47.5 ≤ 52.5
[9] = 1.5% pregnancy rate, weight 90 ≥ W <120 lbs
[10] = 1.5% pregnancy rate, weight 120 ≥ W <150 lbs
[11] = 1.5% pregnancy rate, weight 150 ≥ W <180 lbs
[12] = 1.5% pregnancy rate, weight 180 ≥ W <210 lbs
[13] = 1.5% pregnancy rate, weight 210 ≥ W <240 lbs
[14] = 1.5% pregnancy rate, weight 240 ≥ W <270 lbs
[15] = 1.5% pregnancy rate, weight 270 ≥ W lbs
[16] = 3% pregnancy rate, BMI >17.5 ≤ 22.5
[17] = 3% pregnancy rate, BMI >22.5 ≤ 27.5
[18] = 3% pregnancy rate, BMI >27.5 ≤ 32.5
[19] = 3% pregnancy rate, BMI >32.5 ≤ 37.5
[20] = 3% pregnancy rate, BMI >37.5 ≤ 42.5
[21] = 3% pregnancy rate, BMI >42.5 ≤ 47.5
[22] = 3% pregnancy rate, BMI >47.5 ≤ 52.5
[23] = 3% pregnancy rate, weight 90 ≥ W <120 lbs
[24] = 3% pregnancy rate, weight 120 ≥ W <150 lbs
[25] = 3% pregnancy rate, weight 150 ≥ W <180 lbs
[26] = 3% pregnancy rate, weight 180 ≥ W <210 lbs
[27] = 3% pregnancy rate, weight 210 ≥ W <240 lbs
[28] = 3% pregnancy rate, weight 240 ≥ W <270 lbs
[29] = 3% pregnancy rate, weight 270 ≥ W lbs

SMILES: C#C[C@]1(O)CC[C@H]2[C@@H]3CCC4=CC(=O)CC[C@@H]4[C@H]3CC[C@@]21CC [LNG, levonorgestrel]
- increase of free LNG as share of the approximate steady state level ([1]; for every 10 μg per day of EE delivered): 20%
- change of free LNG in the plasma ([1]; for every one μg per day reduction or increase of EE below or above 30 μg per day): 30 picograms per ml
- LNG Level (healthy women; [2]): 74.7 µg/day
- Required Dose (healthy women; [2]): 192 µg/day
- LNG Level (healthy women; [3]): 52.7 µg/day
- Required Dose (healthy women; [3]): 273 µg/day
- LNG Level (healthy women; [4]): 67.1 µg/day
- Required Dose (healthy women; [4]): 215 µg/day
- LNG Level (healthy women; [5]): 41.1 µg/day
- Required Dose (healthy women; [5]): 350 µg/day
- LNG Level (healthy women; [6]): 26.6 µg/day
- Required Dose (healthy women; [6]): 541 µg/day
- LNG Level (healthy women; [7]): 38.9 µg/day
- Required Dose (healthy women; [7]): 370 µg/day
- LNG Level (healthy women; [8]): 25.6 µg/day
- Required Dose (healthy women; [8]): 563 µg/day
- LNG Level (healthy women; [9]): 120.0 µg/day
- Required Dose (healthy women; [9]): 120 µg/day
- LNG Level (healthy women; [10]): 67 µg/day and 66.9 µg/day
- Required Dose (healthy women; [10]): 215 µg/day and 210 µg/day
- LNG Level (healthy women; [11]): 46.1 µg/day
- Required Dose (healthy women; [11]): 312 µg/day
- LNG Level (healthy women; [12]): 39.6 µg/day
- Required Dose (healthy women; [12]): 364 µg/day
- LNG Level (healthy women; [13]): 45.4 µg/day
- Required Dose (healthy women; [13]): 317 µg/day
- LNG Level (healthy women; [14]): 31.5 µg/day
- Required Dose (healthy women; [14]): 457 µg/day
- LNG Level (healthy women; [15]): 34.1 µg/day
- Required Dose (healthy women; [15]): 422 µg/day
- LNG Level (healthy women; [16]): 152.0 µg/day
- Required Dose (healthy women; [16]): 95 µg/day
- LNG Level (healthy women; [17]): 106.9 µg/day
- Required Dose (healthy women; [17]): 135 µg/day
- LNG Level (healthy women; [18]): 136.1 µg/day
- Required Dose (healthy women; [18]): 106 µg/day
- LNG Level (healthy women; [19]): 83.3 µg/day
- Required Dose (healthy women; [19]): 173 µg/day
- LNG Level (healthy women; [20]): 53.8 µg/day
- Required Dose (healthy women; [20]): 267 µg/day
- LNG Level (healthy women; [21]): 79 µg/day
- Required Dose (healthy women; [21]): 182 µg/day
- LNG Level (healthy women; [22]): 51.8 µg/day
- Required Dose (healthy women; [22]): 278 µg/day
- LNG Level (healthy women; [23]): 241.7 µg/day
- Required Dose (healthy women; [23]): 59 µg/day
- LNG Level (healthy women; [24]): 135.6 µg/day
- Required Dose (healthy women; [24]): 104 µg/day
- LNG Level (healthy women; [25]): 93.5 µg/day
- Required Dose (healthy women; [25]): 154 µg/day
- LNG Level (healthy women; [26]): 80.3 µg/day
- Required Dose (healthy women; [26]): 179 µg/day
- LNG Level (healthy women; [27]): 92.0 µg/day
- Required Dose (healthy women; [27]): 156 µg/day
- LNG Level (healthy women; [28]): 63.8 µg/day
- Required Dose (healthy women; [28]): 226 µg/day
- LNG Level (healthy women; [29]): 69.2 µg/day
- Required Dose (healthy women; [29]): 208 µg/day
- LNG Required Dose (healthy women; BMI >17.5 ≤ 22.5): 95 to 192 µg/day
- LNG Required Dose (healthy women; BMI >22.5 ≤ 27.5): 135 to 273 µg/day
- LNG Required Dose (healthy women; BMI >27.5 ≤ 32.5): 106 to 215 µg/day
- LNG Required Dose (healthy women; BMI >32.5 ≤ 37.5): 173 to 350 µg/day
- LNG Required Dose (healthy women; BMI >37.5 ≤ 42.5): 267 to 541 µg/day
- LNG Required Dose (healthy women; BMI >42.5 ≤ 47.5): 182 to 370 µg/day
- LNG Required Dose (healthy women; BMI >47.5 ≤ 52.5): 278 to 563 µg/day

Source: patent US20200129524A1, “PERSONALIZED CONTRACEPTIVE FORMULATIONS” (Agile Therapeutics, Inc., priority 2017, published 2020)
